Source: patent publication US7772246B2 (Pfizer Inc., priority 2007, dated 2010)
Like-named read-outs stand apart in the source and are kept apart here.

Columns and labels:
b-Raf [1] = target: T1, b-Raf (Homo sapiens, UniProt P15056); assay: Raf biochemical assay (in vitro kinase assay, 32-P transfer from ATP to Mek1); conditions: full-length wild type b-Raf, Mek1 substrate; for inhibition at 1 µM: @ 1 μM compound, read-out: b-Raf % inhib @ 1 μM; for Ki: 25 μM ATP
T1 construct: Full-length wild type b-Raf is expressed in recombinant form and purified from bacterial or insect cells; made in house; host or cells: bacterial or insect cells
T1 sequence (P15056 whole entry): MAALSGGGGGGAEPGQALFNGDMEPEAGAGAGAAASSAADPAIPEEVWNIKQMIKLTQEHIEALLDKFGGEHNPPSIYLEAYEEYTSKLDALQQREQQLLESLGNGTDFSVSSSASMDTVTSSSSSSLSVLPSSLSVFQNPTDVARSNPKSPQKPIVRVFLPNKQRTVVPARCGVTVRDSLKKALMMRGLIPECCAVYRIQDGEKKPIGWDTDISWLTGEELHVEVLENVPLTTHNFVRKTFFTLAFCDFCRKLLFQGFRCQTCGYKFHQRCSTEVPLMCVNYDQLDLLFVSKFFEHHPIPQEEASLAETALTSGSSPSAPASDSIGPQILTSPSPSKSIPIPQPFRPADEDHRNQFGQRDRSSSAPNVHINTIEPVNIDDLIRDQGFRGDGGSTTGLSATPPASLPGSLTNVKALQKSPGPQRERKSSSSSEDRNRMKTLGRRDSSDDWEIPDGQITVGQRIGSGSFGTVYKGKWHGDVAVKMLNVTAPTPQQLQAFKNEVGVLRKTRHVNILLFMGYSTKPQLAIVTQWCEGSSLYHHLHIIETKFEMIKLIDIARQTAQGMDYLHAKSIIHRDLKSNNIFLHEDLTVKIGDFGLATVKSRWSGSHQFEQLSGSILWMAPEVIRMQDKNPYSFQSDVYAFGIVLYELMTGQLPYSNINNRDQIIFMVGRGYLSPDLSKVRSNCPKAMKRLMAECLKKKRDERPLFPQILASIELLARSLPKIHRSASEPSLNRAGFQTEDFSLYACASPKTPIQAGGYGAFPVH
Experimental: Compounds of the present invention were evaluated for potency against b-Raf using an in vitro kinase assay. Raf kinase activity is measured in vitro by determining transfer of radiolabeled 32-P phosphate from ATP to the specific Raf substrate Mek1. Full-length wild type b-Raf is expressed in recombinant form and purified from bacterial or insect cells. Recombinant Mek1 is purified from E. coli bacterial cells. In one assay format (designated G1), the full-length wild type Mek1 is used as the b-Raf substrate. In a second assay format (designated G2), the full-length K97R Mek1 mutant is used as the b-Raf substrate.
In vitro kinase assays are performed in solution containing the following; 50 mM Hepes (pH 7.4), 5 nM b-Raf, 0.8 μM Mek1, 10 mM MgCl2, 25 μM ATP, 0.002% (v/v) Tween-20, 5 μg/mL leupeptin, 1.2 mM DTT, 2% (v/v) DMSO, 0.2-1.0 μCi [γ-^32P]ATP per well.
The assays are performed in wells of a 96 well polypropylene round bottom plate, each well containing 43.5 μL assay mix and 1.5 μL inhibitor compound or DMSO vehicle. 15 μL of b-Raf mix is added and the plate is shaken on a plate shaker and preincubated for 10 minutes at ambient temperature. The reaction is started by addition of 15 μL ATP mix and shaking. The reaction is terminated after 40 minutes by addition of 25 μL 0.5 M EDTA (pH 7.4).
60 μL of the stopped reaction is transferred to a well of a 96-well nylon 66 Biodyne A membrane Silent Screen filter plate (Nalge/Nunc: 256081). The wells are filtered and washed five times with 0.85% phosphoric acid. The filter is placed in a tray with about 50 mL 0.85% phosphoric acid and gently rotated for 10 minutes on an orbital shaker. The procedure is repeated once with fresh 0.85% phosphoric acid. Five samples of 0.5 μL of ATP mix are also spotted onto filter paper for calculation of specific activity. The filters are air dried for one hour and sandwiched between cellophane wrap on an Amersham Biosciences Storage Phosphor Screen and developed at least over night. The image is read using a Molecular Dynamics Storm 840 phosphoimager. Volumes of spots are calculated using ImageQuant5.1.
Raf kinase activity is calculated from the specific activity of [32-P] ATP, 32-P incorporation into Mek1, and the concentration of b-Raf.

b-Raf [2] = target: T2, b-Raf (Homo sapiens, UniProt P15056, V600E); assay: Raf cellular assay (phospho-Mek1/2 ELISA in A2058 cells); format: cell-based; conditions: human melanoma A2058 cells (b-Raf mutation), Mek1/2 Ser217/221 phosphorylation, 1 hour incubation, read-out: pMEK IC50
T2 construct: endogenous in cells; host or cells: A2058 human melanoma cells
T2 sequence (P15056 whole entry V600E): as the sequence (P15056 whole entry) above, with V600E counted along it
Outline: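 A2058 melanoma cells (B-Raf mutant), seeded overnight in 10% FBS DMEM, were exposed to compounds (11-point 1:3 series, duplicate) for 1 h at 37 °C. Lysates were captured on anti-Mek1-coated plates and Mek1/2 Ser217/221 phosphorylation was read by anti-phospho-Mek1/2 ELISA, HRP/TMB, 450 nm.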

SMILES	inhibition at 1 µM (b-Raf [1]) [%]	Ki (b-Raf [1]) [nM]	IC50 (b-Raf [2]; Table 2) [nM]	IC50 (b-Raf [2]; Table 3) [nM]
CC(CO)Nc1nccc(-c2cn(C(C)C)nc2-c2cnc3[nH]ccc3c2)n1 (stereo in doubt) [Example D-9, (2R)-2-({4-[1-isopropyl-3-(1H-pyrrolo[2,3-b]pyridin-5-yl)-1H-pyrazol-4-yl]pyrimidin-2-yl}amino)propan-1-ol]	100	1.6	918	
CC(C)n1cc(-c2ccnc(NC[C@H](C)O)n2)c(-c2cnc3[nH]ccc3c2)n1 [Example B-1, (2S)-1-(4-(1-isopropyl-3-(1H-pyrrolo[2,3-b]pyridin-5-yl)-1H-pyrazol-4-yl)pyrimidin-2-ylamino)propan-2-ol]	102	0.5	154	
CNc1ccc(-c2nn(C(C)C)cc2-c2ccnc(NC[C@H](C)O)n2)cn1 [Example B-2, (2S)-1-(4-(1-isopropyl-3-(6-(methylamino)pyridin-3-yl)-1H-pyrazol-4-yl)pyrimidin-2-ylamino)propan-2-ol]	97	12	8670	
Cc1cc(-c2nn(C(C)C)cc2-c2ccnc(NC[C@H](C)O)n2)cnc1N [Example B-3, (2S)-1-(4-(3-(6-amino-5-methylpyridin-3-yl)-1-isopropyl-1H-pyrazol-4-yl)pyrimidin-2-ylamino)propan-2-ol]	98	11	815	
CNc1ncc(-c2nn(C(C)C)cc2-c2ccnc(NC[C@H](C)O)n2)cc1C [Example B-4, (2S)-1-(4-(1-isopropyl-3-(5-methyl-6-(methylamino)pyridin-3-yl)-1H-pyrazol-4-yl)pyrimidin-2-ylamino)propan-2-ol]	74	272	3370	
Cc1c[nH]c2ncc(-c3nn(C(C)C)cc3-c3ccnc(NC[C@H](C)O)n3)cc12 [Example B-5, (2S)-1-(4-(1-isopropyl-3-(3-methyl-1H-pyrrolo[2,3-b]pyridin-5-yl)-1H-pyrazol-4-yl)pyrimidin-2-ylamino)propan-2-ol]		0.2	7	
Cc1[nH]c2ncc(-c3nn(C(C)C)cc3-c3ccnc(NC[C@H](C)O)n3)cc2c1C [Example B-6, (2S)-1-(4-(3-(2,3-dimethyl-1H-pyrrolo[2,3-b]pyridin-5-yl)-1-isopropyl-1H-pyrazol-4-yl)pyrimidin-2-ylamino)propan-2-ol]		1.5	44	
Cc1cc2cc(-c3nn(C(C)C)cc3-c3ccnc(NC[C@H](C)O)n3)cnc2[nH]1 [Example B-7, (2S)-1-(4-(1-isopropyl-3-(2-methyl-1H-pyrrolo[2,3-b]pyridin-5-yl)-1H-pyrazol-4-yl)pyrimidin-2-ylamino)propan-2-ol]		10.3	4010	
CC(C)(CO)n1cc(-c2ccnc(NCCC#N)n2)c(-c2cnc3[nH]cc(Cl)c3c2)n1 [Example E-5, 3-({4-[3-(3-chloro-1H-pyrrolo[2,3-b]pyridin-5-yl)-1-(2-hydroxy-1,1-dimethylethyl)-1H-pyrazol-4-yl]pyrimidin-2-yl}amino)-propanenitrile]				0.836
CC(C)(CO)n1cc(-c2ccnc(N)n2)c(-c2cnc3[nH]cc(Cl)c3c2)n1 [Example E-6, 2-[4-(2-amino-pyrimidin-4-yl)-3-(3-chloro-1H-pyrrolo[2,3-b]pyridin-5-yl)-1H-pyrazol-1-yl]-2-methylpropan-1-ol]				8.98
CC(C)n1cc(-c2ccncn2)c(-c2cnc3[nH]cc(Cl)c3c2)n1 [Example F-1, 3-chloro-5-(1-isopropyl-4-(pyrimidin-4-yl)-1H-pyrazol-3-yl)-1H-pyrrolo[2,3-b]pyridine]				49.9
CN1CCC(n2cc(-c3ccncn3)c(-c3cnc4[nH]cc(Cl)c4c3)n2)CC1 [Example F-2, 3-chloro-5-[1-(1-methylpiperidin-4-yl)-4-pyrimidin-4-yl-1H-pyrazol-3-yl]-1H-pyrrolo[2,3-b]pyridine]				196
COc1cc(-c2nn(C(C)(C)C)cc2-c2ccncn2)cnc1N [Example F-3, 5-(1-tert-butyl-4-pyrimidin-4-yl-1H-pyrazol-3-yl)-3-methoxypyridin-2-amine]				55.4
C[C@H](O)CNc1nccc(-c2cn(C3CCOC3)nc2-c2cnc3[nH]cc(Cl)c3c2)n1 (stereo partly drawn) [Example G-1, (2S)-1-(4-(3-(3-chloro-1H-pyrrolo[2,3-b]pyridin-5-yl)-1-(tetrahydrofuran-3-yl)-1H-pyrazol-4-yl)pyrimidin-2-ylamino)propan-2-ol]				16.3
COc1cc(-c2nn(C)cc2-c2ccnc(NCCC#N)n2)cnc1N [Example G-2, 3-({4-[3-(6-amino-5-methoxypyridin-3-yl)-1-methyl-1H-pyrazol-4-yl]pyrimidin-2-yl}amino)propanenitrile]				5.24
Cc1n[nH]c2ncc(-c3nn(CC(F)F)cc3-c3ccnc(NCC(F)F)n3)cc12 [Example G-3, N-(2,2-difluoroethyl)-4-[1-(2,2-difluoroethyl)-3-(3-methyl-1H-pyrazolo[3,4-b]pyridin-5-yl)-1H-pyrazol-4-yl]pyrimidin-2-amine]				22.9
Cc1n[nH]c2ncc(-c3nn(CC(F)F)cc3-c3ccnc(NC4CCOC4)n3)cc12 (stereo not drawn) [Example G-4, 4-[1-(2,2-difluoroethyl)-3-(3-methyl-1H-pyrazolo[3,4-b]pyridin-5-yl)-1H-pyrazol-4-yl]-N-(tetrahydrofuran-3-yl)pyrimidin-2-amine]				774
CC(C)(C#N)n1cc(-c2ccnc(NCCO)n2)c(-c2cnc3[nH]cc(Cl)c3c2)n1 [Example G-5, 2-[3-(3-chloro-1H-pyrollo[2,3-b]pyridin-5-yl)-4-{2-[(2-hydroxyethyl)amino]pyrimidin-4-yl}-1H-pyrazol-1-yl]-2-methylpropanenitrile]				19.9
CC(C)(C#N)n1cc(-c2ccnc(N)n2)c(-c2cnc3[nH]cc(Cl)c3c2)n1 [Example G-6, 2-[4-(2-aminopyrimidin-4-yl)-3-(3-chloro-1H-pyrrolo[2,3-b]pyridin-5-yl)-1H-pyrazol-1-yl]-2-methylpropanenitrile]				17.3
Cc1cc(-c2nn(CC(F)F)cc2-c2ccnc(NCCC#N)n2)cnc1N [Example G-7, 3-(4-(3-(6-amino-5-methylpyridin-3-yl)-1-(2,2-difluoroethyl)-1H-pyrazol-4-yl)pyrimidin-2-ylamino)-propanenitrile]				28.5
CC(C)n1cc(-c2ccnc(N)c2)c(-c2cnc3[nH]cc(Cl)c3c2)n1 [Example H-1, 4-(3-(3-chloro-1H-pyrrolo[2,3-b]pyridin-5-yl)-1-isopropyl-1H-pyrazol-4-yl)pyridin-2-amine]				26
CC(C)n1cc(-c2ccnc(N)c2)c(-c2cnc3[nH]ccc3c2)n1 [Example H-2, 4-(1-isopropyl-3-(1H-pyrrolo[2,3-b]pyridin-5-yl)-1H-pyrazol-4-yl)pyridin-2-amine]				1020
CC(C)n1cc(-c2ccnc3[nH]ccc23)c(-c2cnc3[nH]ccc3c2)n1 [Example H-3, 4-(1-isopropyl-3-(1H-pyrrolo[2,3-b]pyridin-5-yl)-1H-pyrazol-4-yl)-1H-pyrrolo[2,3-b]pyridine]				427
CC(C)n1cc(-c2ccnc3[nH]ccc23)c(-c2cnc3[nH]cc(Cl)c3c2)n1 [Example H-4, 3-chloro-5-(1-isopropyl-4-(1H-pyrrolo[2,3-b]pyridin-4-yl)-1H-pyrazol-3-yl)-1H-pyrrolo[2,3-b]pyridine]				66.3
COc1nc(-c2nn(CC(F)F)cc2-c2ccnc(NC[C@H](C)O)n2)cnc1N [Example I-1, (2S)-1-({4-[3-(5-amino-6-methoxypyrazin-2-yl)-1-(2,2-difluoroethyl)-1H-pyrazol-4-yl]pyrimidin-2-yl}amino)propan-2-ol]				2790
CC(C)n1cc(-c2ccnc(NC[C@H](C)O)n2)c(-c2cnc3[nH]cc(Cl)c3n2)n1 [Example I-2, (2S)-1-({4-[3-(7-chloro-5H-pyrrolo[2,3-b]pyrazin-2-yl)-1-isopropyl-1H-pyrazol-4-yl]pyrimidin-2-yl}amino)propan-2-ol]				20
